Columns and labels:
[1] = Tapped bulk density, compressibility (Carr's) index and Hausner ratio; format: physicochemical; set-up: Compressibility (Carr's) Index: scale not given here; details: for Interpretation (flow): from average compressibility index / Hausner ratio, Tables 7 and 8
Protocol: Tapped Bulk Density: Tapped bulk density analysis was performed by pouring powder that had been sieved through a 1 mm Retsch stainless steel test sieve into a clean, dry pre-weighed 50 ml measuring cylinder. Powder was added to a total volume of 45-50 ml without compacting the sample. The mass and the initial volume (V0) were recorded. The sample was tapped using a Copley JV2000 tapped density tester using the following number of taps: 10, 490, 750 and sets of 1250 taps up to a total of 10,000 taps (Table 6). The volume was recorded after each set of taps and the sample was tapped until it reached constant volume (Vf). For these samples the 10,000 tap volume was used as Vf. Each sample was analysed in duplicate and the tapped density, compressibility index (Carr's index) and Hausner ratios were calculated using the formulae given below. The results from the duplicate analysis were averaged and the average result was used to assess the flow properties of the sample, using the parameters given in Table 7 (see “The Science of Dosage Form Design”, ME Aulton, 1988) and Table 8 (see USP method <1174>; see also, Carr, R. L. Evaluating Flow Properties of Solids. Chem Eng. 1965, 72, 163-168). Tapped Bulk Density=M/Vf. [formula] [formula]

[2] = Flow properties, Revolution Powder Analyser; format: physicochemical; details: for Avalanche Angle / Avalanche Energy / Avalanche Time / Break Energy / Rest Angle: drum rotation speed 0.3 rpm; for Interpretation (flow): from rest angle, Table 10
Protocol: Flow Properties: The flow properties of the samples were analysed using a Revolution Powder Analyser. Approximately 100 ml of the sample is placed in a sample drum which has two borosilicate glass sides. A motor turns two high precision silicone rollers, which in turn rotate the drum. A digital camera with the assistance of cold cathode backlight illumination takes images of the powder during the rotation process. Using a drum rotation speed of 0.3 rpm the time to avalanche, avalanche angle, avalanche energy, break energy and rest angle are measured. The software calculates these properties by analysing the images produced as the drum is rotated. The results of these properties can be used to assess the flow of the bulk powder. The interpretation of the rest angle (angle of repose) are given in Table 10 (see USP method <1174>; see also, Carr, R. L. Evaluating Flow Properties of Solids. Chem Eng. 1965, 72, 163-168).

[3] = Particle size according to USP <429> (laser light diffraction); format: physicochemical
Protocol: In some embodiments, the particle size and the particle size distribution (e.g., D90, D50, and D10) of a compound of the invention is determined by the laser light diffraction particle size distribution analysis. The particle size distribution is determined in accordance with the Fraunhofer light diffraction method. In this method, a coherent laser beam passes through the sample and the resulting diffraction pattern is focused on a multi-element detector. Since the diffraction pattern depends, among other parameters, on particle size, the particle size distribution can be calculated based on the measured diffraction pattern of the sample. In one embodiment, the particle size and the particle size distribution is measured according to U.S. Pharmacopeia (USP) <429>.
Particle Size: The particle size of the Micronized CVC mesylate Form A and the non-micronized CVC mesylate Form A were determined according to USP <429> as shown in Table 5.

[4] = BET surface area by multipoint nitrogen adsorption; format: physicochemical
Protocol: Samples were analysed for BET (Brunauer-Emmett-Teller) surface area by a multipoint Nitrogen adsorption method (volumetric technique) using a Micromeritics TriStar 3020 instrument. The sample degassing was undertaken using a Micromeritics FlowPrep 060 applying flowing argon of 99.995% purity at a flow rate of approximately 20 cc/min for two hours at 20° C. Samples were degassed in their respective analysis tubes and transferred directly to the TriStar II immediately after the degassing period.

[5] = Intrinsic dissolution of compressed disc, Sirius T3; format: physicochemical; details: Britton-Robinson buffer, average pH 3.12 (Form A), room temperature, disc 7.07 mm^2
Protocol: In one embodiment, the extrapolated intrinsic dissolution rate is measured using dissolution disc having 7.07 mm^2 which was compressed under high pressure, ca. 100 kg, using a constructed die. In one embodiment, a Sirius T3 was used as the dissolution apparatus containing 20 mL of test media with stirring speed of the paddle set to −30%. In some embodiments, the dissolution was measured at room temperature. In one embodiment, dissolution was measured over 1 pH sector by ultraviolet (UV) spectrometry. In one embodiment, the UV spectra of the dissolution solution was collected over time, for example every 30 seconds, and converted to concentration using the molar extinction coefficient (MEC) by UV-metric titration. In one embodiment, the intrinsic dissolution rate was calculated by dividing the extrapolated dissolution rate by the surface area of the dissolution disc. In one embodiment, the dissolution media was Britton-Robinson buffer solution. In one embodiment, the dissolution media was pH 3.1 Britton-Robinson buffer solution. In one embodiment, the dissolution media was pH 3.2 Britton-Robinson buffer solution. In another embodiment, the dissolution media was pH 4.7 Britton-Robinson buffer solution.
Intrinsic Dissolution: Appropriate weight of the pure test compound material were used to fill the cavity of the dissolution disc and compressed under high pressure, ca. 100 kg, using a constructed die. No additives were added, avoiding any external interference in the intrinsic dissolution profile. The resulting non-disintegrating disc was transferred to the dissolution apparatus, Sirius T3, containing 20 ml of the test media at room temperature. The stirring speed of the paddle was set to −30%. Dissolution was then measured over 1 pH sector. The solution spectra was collected every 30 seconds over 120 collection points and converted to concentration using the molar extinction coefficient (MEC) by UV-metric titration. Intrinsic dissolution rate was calculated by dividing the extrapolated dissolution rate by the surface area of the disk (7.07 mm^2). All analysis was performed in duplicate, with XRPD both prior to and post dissolution analysis, where possible.
Dissolution media, Britton-Robinson buffer solutions, were prepared by adding a specified volume of sodium hydroxide (0.2 M) to 200 ml of a solution of mixed acid, of 0.04 M with respect to phosphoric acid (2.72 ml/l), acetic acid (2.30 ml/l) and boric acid (2.476 g/l). The amount of sodium hydroxide used to prepare each buffer is outlined below:
pH 3.2 Britton-Robinson buffer: 38 ml of sodium hydroxide.

[6] = cited from earlier work
[7] = Rep. 1, M/Vf, Vf = volume after 10,000 taps
[8] = Rep. 2, M/Vf, Vf = volume after 10,000 taps
[9] = listed as Form A Non-micronized

| Structure (SMILES) | Compressibility (Carr's) Index ([1]; Mean of duplicate) | Hausner Ratio ([1]; Mean of duplicate) | Tapped Bulk Density ([1]; Mean of duplicate) | Compressibility (Carr's) Index ([1]; Rep. 1) | Hausner Ratio ([1]; Rep. 1) | Tapped Bulk Density [1, 7] | Compressibility (Carr's) Index ([1]; Rep. 2) | Hausner Ratio ([1]; Rep. 2) | Tapped Bulk Density [1, 8] | Interpretation (flow) [1] | Avalanche Angle [2] | Avalanche Energy [2] | Avalanche Time [2] | Break Energy [2] | Rest Angle [2] | Interpretation (flow) [2] | BET constant, C [4] | Surface area [4] | Extrapolated Dissolution Rate ([5]; Disc 1, 3.14 (Form C)) | Extrapolated Dissolution Rate ([5]; Disc 2, 3.15 (Form C)) | other results |
| --- | --- | --- | --- | --- | --- | --- | --- | --- | --- | --- | --- | --- | --- | --- | --- | --- | --- | --- | --- | --- | --- |
| CCCCOCCOc1ccc(-c2ccc3c(c2)/C=C(/C(=O)Nc2ccc([S+]([O-])Cc4cncn4CCC)cc2)CCCN3CC(C)C)cc1 (stereo not drawn) [Form A Non-micronised] | 35.4 | 1.5 | 0.2 g/mL | 34.34 | 1.52 | 0.22 g/mL | 36.36 | 1.57 | 0.21 g/mL | Very Poor | 72.60 deg | 41.58 kJ/kg | 6.5 s | 138.38 kJ/kg | 50.75 deg | Poor (Poor - must agitate, vibrate 46-55) | 42.99 | 3.0295 ± 0.0122 m^2/g |  |  | Particle Size D10 [3, 9]: 4.725 μm; Particle Size D50 [3, 9]: 13.803 μm; Particle Size D90 [3, 9]: 65.910 μm |
| CCCCOCCOc1ccc(-c2ccc3c(c2)/C=C(/C(=O)Nc2ccc([S+]([O-])Cc4cncn4CCC)cc2)CCCN3CC(C)C)cc1 (stereo not drawn) [Form C] | 6.0 | 1.1 | 0.5 g/mL | 7.07 | 1.08 | 0.49 g/mL | 5.00 | 1.05 | 0.48 g/mL | Excellent (5-15) | 51.55 deg | 20.28 kJ/kg | 4.4 s | 71.90 kJ/kg | 41.30 deg | Passable (Passable - may hang up 41-45) | 39.87 | 2.3071 ± 0.0058 m^2/g | 10.80 µg/min | 11.38 µg/min | Density and flow compared with the Form A samples ([2]; Revolution Analyzer flowability measurements): more dense and flows better than the Form A samples |
| CCCCOCCOc1ccc(-c2ccc3c(c2)/C=C(/C(=O)Nc2ccc([S@@+]([O-])Cc4cncn4CCC)cc2)CCCN3CC(C)C)cc1 [Cenicriviroc, (S,E)-8-(4-(2-Butoxyethoxy)phenyl)-1-(2-methylpropyl)-N-(4-(((1-propyl-1H-imidazol-5-yl)methyl)sulfinyl)phenyl)-1,2,3,4-tetrahydrobenzo[b]azocine-5-carboxamide] |  |  |  |  |  |  |  |  |  |  |  |  |  |  |  |  |  |  |  |  | Water solubility [6]: poorly water-soluble |
| CCCCOCCOc1ccc(-c2ccc3c(c2)/C=C(/C(=O)Nc2ccc([S@@+]([O-])Cc4cncn4CCC)cc2)CCCN3CC(C)C)cc1 [Form A Micronised] | 28.6 | 1.4 | 0.2 g/mL | 27.55 | 1.42 | 0.16 g/mL | 29.59 | 1.40 | 0.16 g/mL | Poor (23-35) | 68.05 deg | 32.98 kJ/kg | 7.4 s | 86.41 kJ/kg | 44.85 deg | Passable (Passable - may hang up 41-45) | 37.98 | 12.3614 ± 0.0440 m^2/g | 7.20 µg/min | 9.43 µg/min | Particle Size D10 ([3]; listed as Form A Micronized): 0.582 μm; Particle Size D50 ([3]; listed as Form A Micronized): 3.226 μm; Particle Size D90 ([3]; listed as Form A Micronized): 7.576 μm |

From patent US10301287B2, “Solid forms of cenicriviroc mesylate and processes of making solid forms of cenicriviroc mesylate” (Tobira Therapeutics, Inc., priority 2016, dated 2019)
